Data as given in patent publication US6350477B1, “Food material containing antioxidant ingredient derived from citrus fruits” (Pokka Corporation, priority 1998, dated 2002).

Columns and labels:
[1] = Mutagenicity test according to Ames assay; assay type: cell-based
Experimental: (§1) Eriocitrin is an ingredient derived from natural products, and it is contained in a juice of citrus fruits such as lemon and lime which have been already eaten in a large amount of several tens of milligrams per 100 ml. There is no problem with a safety to humans. It is negative in the mutagenicity test according to Rec-assay or Ames assay. Thus, the safety has been identified.

[2] = Mutagenicity test according to Rec-assay; assay type: cell-based
Experimental: as §1

Structure (SMILES): C[C@@H]1O[C@@H](OC[C@H]2O[C@@H](Oc3cc(O)c4c(c3)O[C@H](c3ccc(O)c(O)c3)CC4=O)[C@H](O)[C@@H](O)[C@@H]2O)[C@H](O)[C@H](O)[C@H]1O [Eriocitrin, eriodictyol-7-rutinoside]
- mutagenicity test according to Ames assay [1]: negative
- mutagenicity test according to Rec-assay [2]: negative
